Test results: paper PMC7756392, “Syntheses of Thailandepsin B Pseudo‐Natural Products: Access to New Highly Potent HDAC Inhibitors via Late‐Stage Modification” (Chemistry (Weinheim an Der Bergstrasse, Germany), 2020)

Experiments:
human recombinant HDAC6 = target: T1, human recombinant HDAC6 (Homo sapiens, UniProt Q9UBN7); experiment: ZMAL trypsin assay, HDAC6; format: biochemical; conditions: for inhibition at 10 µM: ZMAL trypsin assay
T1 construct: purchased BPS Bioscience 50006
T1 sequence (Q9UBN7 1-1215): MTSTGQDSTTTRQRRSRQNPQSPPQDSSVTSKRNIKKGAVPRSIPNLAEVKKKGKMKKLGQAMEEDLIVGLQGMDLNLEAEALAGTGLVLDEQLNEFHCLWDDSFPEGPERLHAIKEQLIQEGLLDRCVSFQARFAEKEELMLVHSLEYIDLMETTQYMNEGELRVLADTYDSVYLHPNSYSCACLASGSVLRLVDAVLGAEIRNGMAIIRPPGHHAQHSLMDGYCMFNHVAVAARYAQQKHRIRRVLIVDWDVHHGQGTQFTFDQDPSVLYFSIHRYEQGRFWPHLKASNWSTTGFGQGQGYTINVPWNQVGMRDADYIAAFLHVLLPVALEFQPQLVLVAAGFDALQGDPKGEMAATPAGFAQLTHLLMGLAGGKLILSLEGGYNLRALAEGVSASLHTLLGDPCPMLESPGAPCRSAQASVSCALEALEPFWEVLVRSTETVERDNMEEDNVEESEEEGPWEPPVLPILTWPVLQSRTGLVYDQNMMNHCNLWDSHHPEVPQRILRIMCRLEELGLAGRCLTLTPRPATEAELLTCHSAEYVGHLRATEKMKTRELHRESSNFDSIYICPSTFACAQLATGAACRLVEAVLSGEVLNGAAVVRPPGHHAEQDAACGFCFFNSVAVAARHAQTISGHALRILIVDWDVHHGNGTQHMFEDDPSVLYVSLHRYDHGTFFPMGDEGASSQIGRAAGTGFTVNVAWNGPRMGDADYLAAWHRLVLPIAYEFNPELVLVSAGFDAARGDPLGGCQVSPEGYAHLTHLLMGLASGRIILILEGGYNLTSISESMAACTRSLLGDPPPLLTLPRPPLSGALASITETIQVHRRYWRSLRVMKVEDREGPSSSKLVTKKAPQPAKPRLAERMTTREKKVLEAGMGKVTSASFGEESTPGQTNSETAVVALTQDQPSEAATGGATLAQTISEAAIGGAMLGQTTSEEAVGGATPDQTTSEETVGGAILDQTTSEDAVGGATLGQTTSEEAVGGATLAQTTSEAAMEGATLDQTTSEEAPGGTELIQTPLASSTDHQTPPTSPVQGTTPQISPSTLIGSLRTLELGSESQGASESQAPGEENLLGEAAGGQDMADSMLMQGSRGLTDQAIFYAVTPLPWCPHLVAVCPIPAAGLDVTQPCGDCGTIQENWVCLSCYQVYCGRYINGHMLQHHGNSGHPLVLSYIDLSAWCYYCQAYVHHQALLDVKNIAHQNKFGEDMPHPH
Procedure: (§1) [28] Assays for HDAC1/6 were prepared according to: B. Heltweg , J. Trapp , M. Jung , Methods 2005, 36, 332–337; assays for HDAC8 were prepared according to: J. Senger , J. Melesina , M. Marek , C. Romier , I. Oehme , O. Witt , W. Sippl , M. Jung , J. Med. Chem. 2016, 59, 1545–1555. […]
(§2) hHDAC1/6: Activity assays were performed in OptiPlateTM-96 F black microplates (PerkinElmer). Commercial available enzymes (human recombinant HDAC1; BPS Bioscience, catalog no. 50051 and human recombinant HDAC6; BPS Bioscience, catalog no. 50006) were used. Total assay volume of 60 µL contains 42 µl of assay buffer (50 mM Tris -HCl, pH 8.0, 137 mM NaCl, 2.7 mM KCl, 1 mM MgCl2, 0.2 mM TCEP and 1 mg/mL bovine serum albumin), 10 µL of enzyme solution in assay buffer, 3 µL of increasing concentrations of inhibitors in DMSO and 5 μL of the fluorogenic substrate ZMAL (Z -(Ac)Lys-AMC) (126 μM). After incubation (90 min, 37 °C) 60 µL of stop solution, containing 5 μL Trichostatin A (TSA) (33 μM) and 10 μL trypsin (6 mg/mL) in trypsin buffer (Tris-HCl 50 mM, pH 8.0, NaCl 100 mM), were added. […]

human recombinant HDAC1 = target: T2, human recombinant HDAC1 (Homo sapiens, UniProt Q13547); experiment: ZMAL trypsin assay, HDAC1; format: biochemical; conditions: for inhibition at 10 µM: ZMAL trypsin assay
T2 construct: purchased BPS Bioscience 50051
Procedure: as §1, §2

T2 sequence (Q13547 whole entry): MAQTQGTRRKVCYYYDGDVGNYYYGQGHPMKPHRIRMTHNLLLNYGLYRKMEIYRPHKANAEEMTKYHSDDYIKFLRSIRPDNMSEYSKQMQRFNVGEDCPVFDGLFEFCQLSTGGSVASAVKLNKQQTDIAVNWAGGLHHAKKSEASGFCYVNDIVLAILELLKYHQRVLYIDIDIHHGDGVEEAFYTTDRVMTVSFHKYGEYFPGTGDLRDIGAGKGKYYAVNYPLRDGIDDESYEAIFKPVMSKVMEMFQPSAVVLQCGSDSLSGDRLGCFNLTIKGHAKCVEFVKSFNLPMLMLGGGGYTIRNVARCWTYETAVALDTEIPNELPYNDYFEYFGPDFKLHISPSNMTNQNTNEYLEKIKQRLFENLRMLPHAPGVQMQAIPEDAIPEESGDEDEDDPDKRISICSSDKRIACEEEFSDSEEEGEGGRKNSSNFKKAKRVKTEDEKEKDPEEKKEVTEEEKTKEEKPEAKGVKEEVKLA

| Compound | HDAC6 inhibition (in words) (human recombinant HDAC6) | inhibition at 10 µM (human recombinant HDAC6) | HDAC1 inhibition (in words) (human recombinant HDAC1) | inhibition at 10 µM (human recombinant HDAC1) |
| --- | --- | --- | --- | --- |
| C=C[C@@H]1CC(=O)N[C@H](CCCC)C(=O)N[C@H](C)C(=O)N[C@H]([C@@H](C)CC)[C@@H](O[Si](C)(C)C(C)(C)C)CC(=O)O1 [compound 9] | did not show inhibition | < 5% | did not show inhibition | < 5% |
| C=C[C@@H]1CC(=O)N[C@H](CCCC)C(=O)N[C@H](C)C(=O)N[C@H]([C@@H](C)CC)[C@@H](O)CC(=O)O1 [compound 28] | did not show inhibition | < 5% | did not show inhibition | < 5% |
| CCCC[C@H]1NC(=O)C[C@@H](/C=C/CCC(=O)N(OC(=O)OC(C)(C)C)C(=O)OC(C)(C)C)OC(=O)C[C@H](O[Si](C)(C)C(C)(C)C)[C@@H]([C@@H](C)CC)NC(=O)[C@@H](C)NC1=O [compound 35] | not active | < 5% | not active | < 5% |
